Several values for one entry are separate records, joined by “and”; a condition that tells them apart may be missing. Equal values may be shown once. Where a name gives a salt, the structure may show the parent alone. Read-outs that look alike come from different tables or passages of the source.
Tests used:
EBC-1 cells [1] = assay: Cytostasis (viability) assay, Alamar Blue; assay type: cell-based, human; conditions: for live cell %: mean ± SEM; for dead cells: alone
Procedure: EBC-1 (squamous cell carcinoma, metastatic, origin: bronchi, JCRB No: JCRB0820[85],[86], originally purchased from Thermo Fisher Scientific and provided by the National Institute of Oncology, Budapest, Hungary) cells were maintained as an adherent culture in DMEM medium (Lonza) containing 10% FBS (Gibco) and supplemented with 2 mM of L-glutamine (Lonza), 1% non-essential amino acids (Gibco), 1 mM sodium pyruvate (Sigma-Aldrich), 1% penicillin–streptomycin (10,000 units penicillin and 10 mg streptomycin/ml, Gibco), at 37 °C in a humidified atmosphere containing 5% CO2.
For testing cytostatic effects, 3500 cells per well were plated in 96-well flat bottom tissue culture plates (Sarstedt, Nümbrecht, Germany) in complete DMEM medium. LL-37 stock solution was prepared in serum-free medium (SFM) at 200 µM, while heme compounds were dissolved first in 10 mM NaOH at 3 mM, sterile filtered, and diluted tenfold in SFM. Cells were incubated with the peptide, small molecules, or peptide-small molecule mixtures for 24 h. Then cells were washed three times with SFM and cultured further for 72 h in complete medium. Cytostatic activity was determined using the Alamar Blue assay, where 20 µl Alamar Blue (resazurin sodium salt, Sigma-Aldrich) solution (0.15 mg/ml, dissolved in PBS, pH 7.4) was added to each well. Following a 3 h incubation, fluorescence (λEx = 530/30 and λEm = 610/10 nm) was read using a Synergy H4 multi-mode microplate reader (BioTek, Winooski, VT, USA). Live cell percentage of treated cells was calculated compared to control cells treated with medium only. All measurements were performed in triplicates, and live cell % values together with SEM are presented.

EBC-1 cells [2] = assay: Cell morphology by bright field microscopy; assay type: cell-based, human; conditions: 3 h exposure; for cell morphology: 33 µM
Procedure: To visualize cell morphology changes, microscopic images of EBC-1 cells were captured. EBC-1 cells were plated in a 96-well flat bottom tissue culture plate and treated with peptide, heme compounds, and their mixtures as described in the above section. Microscopic images of the adherent cells were taken after the first 3 h of the treatment using an Olympus CKX41 microscope (Hamburg, Germany, objective: 20×).

erythrocytes = conditions: cited from earlier work
From the text: Based on our results on model membranes, and in vitro assays on the selected cell line above, further activity alterations of the AMPs upon complex formation with hemin may be speculated. First of all, AMP–heme interaction could result in reduced antimicrobial activity by lowering the active peptide concentration. This can be achieved either by sequestering the free available peptide fraction by heme not allowing membrane interaction or by precluding formation of the active membrane-bound conformation of the peptides in the hemin-complexed membrane-associated form. A further interesting point ...

[3] = Intrinsic Trp fluorescence quenching by hemin; assay type: binding; conditions: PBS, 25 °C
Procedure: Spectra were collected using a Jobin Yvon Fluoromax-3 spectrofluorometer at 25 °C in PBS. Spectra were recorded three times, averaged, and corrected by subtracting an appropriate blank. The Trp fluorophore was excited at 295 nm, and emission was monitored from 305 to 400 nm. 2 µM peptide was titrated with subsequent addition of hemin (up to 20 μM) in the presence and absence of liposomes (100 µM total lipid).

[4] = Dynamic light scattering of peptide-hemin assemblies; assay type: physicochemical; conditions: three-component systems: 25 µM peptide, 75 µM hemin, 635 µM lipid (PC or PC/PG), PBS, various mixing order
Procedure: Particle size and size distribution of the peptide-small molecule mixtures were measured at 20 °C using a W130i dynamic light scattering device (DLS, Avid Nano Ltd., High Wycombe, UK) with a diode laser (660 nm) and a photodiode detector. Low volume disposable cuvettes with 1 cm path-length were used (UVette, Eppendorf Austria GmbH). Samples prepared for CD experiments were measured after completing the titration. The time-dependent autocorrelation function was measured for 10 s, repeated 10 times.

[5] = cited from earlier work
Procedure: Based on CD spectral features, apparent dissociation constants in the 20–50 μM range could be estimated for the peptide-hemin interactions as a single dose of a molar equivalent of hemin (25 μM) was enough here to reach close-to-saturation levels for several peptides (Fig. 1). […] It should be noted that classical considerations on affinity determination might fail for the ...

[6] = hemin-to-peptide ratio of 1:3; no lipid; cited from earlier work

Molecule: C=CC1=C(C)/C(=C/C2=NC(=C\c3[nH]c(/C=C4\NC(=O)C(C)=C4C=C)c(C)c3CCC(=O)O)/C(CCC(=O)O)=C2C)NC1=O [biliverdin, biliverdin HCl]
- toxicity (EBC-1 cells [1]; EBC-1, up to 100 µM (Fig. S12)): No significant toxicity
- cytostatic effect (EBC-1 cells [1]; EBC-1, up to 100 µM, 24 h treatment + 72 h culture, Alamar Blue): No cytostatic effect
- cell morphology (EBC-1 cells [2]): Non-damaged cells

Molecule: CM15
- hemolytic effects (erythrocytes): moderate
- Trp fluorescence quenching by hemin ([3]; 2 µM peptide, 10 µM hemin, no lipid): total signal loss
- average particle size of aggregates (DLS) [4]: ≤ 1 µm

Molecule: LLGDFFRKSKEKIGKEFKRIVQRIKDFLRNLVPRTES [LL-37, the only human cathelicidin, a host defense peptide]
- live cell percentage (EBC-1 cells [1]; EBC-1, 17 µM LL-37 administered together with hemin or biliverdin): 25–35%
- live cell % (EBC-1 cells [1]; EBC-1, 17 µM LL-37 alone, relative to untreated control, n = 3): 4.7 ± 1.3% and ~ 5%
- live cell % (EBC-1 cells [1]; EBC-1, 17 µM LL-37 with biliverdin at 1:3 ratio, n = 3): 34 ± 6%
- live cell % (EBC-1 cells [1]; EBC-1, 17 µM LL-37 with hemin at 1:1 peptide to hemin ratio, n = 3): 36 ± 12%
- live cell % (EBC-1 cells [1]; EBC-1, 17 µM LL-37 with hemin at 1:3 ratio, n = 3): 23 ± 6%
- cells killed (EBC-1 cells [1]; EBC-1, LL-37 at 17 µM, 24 h treatment + 72 h culture, Alamar Blue, n = 3): ~ 90%
- cells killed (EBC-1 cells [1]; EBC-1, LL-37 at 50 µM, 24 h treatment + 72 h culture, Alamar Blue, n = 3): almost all cells
- cytostatic effect (EBC-1 cells [1]; EBC-1, LL-37 at ~5 µM, 24 h treatment + 72 h culture, Alamar Blue, n = 3): no significant effect
- Kd ([5]; calculated, read-out: Kd, interaction with hemin): 20 to 36 µM
- cell morphology alterations (EBC-1 cells [2]; 17 µM LL-37): shrinkage, and membrane defects

Molecule: hemin
- concentration with dose-dependent cytostatic effect (EBC-1 cells [1]; EBC-1 (Fig. S12)): ≥ 33 µM
- dead cells (EBC-1 cells [1]; EBC-1, 33 µM, 24 h treatment + 72 h culture, Alamar Blue): ~ 20%
- dead cells (EBC-1 cells [1]; EBC-1, 100 µM, 24 h treatment + 72 h culture, Alamar Blue): ~60%
- concentration at which cytostatic (EBC-1 cells [1]; EBC-1, compound alone, 24 h treatment + 72 h culture, Alamar Blue): > 10 µM
- cell morphology (EBC-1 cells [2]): Non-damaged cells

Molecule: melittin
- remaining Trp fluorescence intensity on hemin quenching [6]: 5–10%
- Kd ([5]; read-out: binding strength, interaction with hemin): 60 to 120 µM
- hemolytic effects (erythrocytes): strong
- Trp fluorescence quenching by hemin ([3]; 2 µM peptide with PC liposomes): complete signal loss

From paper PMC8443738, “Interplay between membrane active host defense peptides and heme modulates their assemblies and in vitro activity” (Scientific Reports, 2021)
